The molecules below were run against full-length ATR (Homo sapiens (Human), UniProt Q13535) (assay: ATR Inhibition Assay (radioactive-phosphate incorporation)). Conditions: read-out: ATR Ki.
Assay type: biochemical
Summary of the method: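 Full-length human ATR (5 nM) was assayed at 25 °C in 50 mM Tris/HCl pH 7.5, 10 mM MgCl2, 1 mM DTT, with 10 μM [γ-33P]ATP and 800 μM peptide, after 10-min compound preincubation. Reactions were stopped after 24 h, captured on phosphocellulose and counted; Ki(app) came from non-linear regression of initial rates.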

Sequence of full-length ATR (Q13535 whole entry): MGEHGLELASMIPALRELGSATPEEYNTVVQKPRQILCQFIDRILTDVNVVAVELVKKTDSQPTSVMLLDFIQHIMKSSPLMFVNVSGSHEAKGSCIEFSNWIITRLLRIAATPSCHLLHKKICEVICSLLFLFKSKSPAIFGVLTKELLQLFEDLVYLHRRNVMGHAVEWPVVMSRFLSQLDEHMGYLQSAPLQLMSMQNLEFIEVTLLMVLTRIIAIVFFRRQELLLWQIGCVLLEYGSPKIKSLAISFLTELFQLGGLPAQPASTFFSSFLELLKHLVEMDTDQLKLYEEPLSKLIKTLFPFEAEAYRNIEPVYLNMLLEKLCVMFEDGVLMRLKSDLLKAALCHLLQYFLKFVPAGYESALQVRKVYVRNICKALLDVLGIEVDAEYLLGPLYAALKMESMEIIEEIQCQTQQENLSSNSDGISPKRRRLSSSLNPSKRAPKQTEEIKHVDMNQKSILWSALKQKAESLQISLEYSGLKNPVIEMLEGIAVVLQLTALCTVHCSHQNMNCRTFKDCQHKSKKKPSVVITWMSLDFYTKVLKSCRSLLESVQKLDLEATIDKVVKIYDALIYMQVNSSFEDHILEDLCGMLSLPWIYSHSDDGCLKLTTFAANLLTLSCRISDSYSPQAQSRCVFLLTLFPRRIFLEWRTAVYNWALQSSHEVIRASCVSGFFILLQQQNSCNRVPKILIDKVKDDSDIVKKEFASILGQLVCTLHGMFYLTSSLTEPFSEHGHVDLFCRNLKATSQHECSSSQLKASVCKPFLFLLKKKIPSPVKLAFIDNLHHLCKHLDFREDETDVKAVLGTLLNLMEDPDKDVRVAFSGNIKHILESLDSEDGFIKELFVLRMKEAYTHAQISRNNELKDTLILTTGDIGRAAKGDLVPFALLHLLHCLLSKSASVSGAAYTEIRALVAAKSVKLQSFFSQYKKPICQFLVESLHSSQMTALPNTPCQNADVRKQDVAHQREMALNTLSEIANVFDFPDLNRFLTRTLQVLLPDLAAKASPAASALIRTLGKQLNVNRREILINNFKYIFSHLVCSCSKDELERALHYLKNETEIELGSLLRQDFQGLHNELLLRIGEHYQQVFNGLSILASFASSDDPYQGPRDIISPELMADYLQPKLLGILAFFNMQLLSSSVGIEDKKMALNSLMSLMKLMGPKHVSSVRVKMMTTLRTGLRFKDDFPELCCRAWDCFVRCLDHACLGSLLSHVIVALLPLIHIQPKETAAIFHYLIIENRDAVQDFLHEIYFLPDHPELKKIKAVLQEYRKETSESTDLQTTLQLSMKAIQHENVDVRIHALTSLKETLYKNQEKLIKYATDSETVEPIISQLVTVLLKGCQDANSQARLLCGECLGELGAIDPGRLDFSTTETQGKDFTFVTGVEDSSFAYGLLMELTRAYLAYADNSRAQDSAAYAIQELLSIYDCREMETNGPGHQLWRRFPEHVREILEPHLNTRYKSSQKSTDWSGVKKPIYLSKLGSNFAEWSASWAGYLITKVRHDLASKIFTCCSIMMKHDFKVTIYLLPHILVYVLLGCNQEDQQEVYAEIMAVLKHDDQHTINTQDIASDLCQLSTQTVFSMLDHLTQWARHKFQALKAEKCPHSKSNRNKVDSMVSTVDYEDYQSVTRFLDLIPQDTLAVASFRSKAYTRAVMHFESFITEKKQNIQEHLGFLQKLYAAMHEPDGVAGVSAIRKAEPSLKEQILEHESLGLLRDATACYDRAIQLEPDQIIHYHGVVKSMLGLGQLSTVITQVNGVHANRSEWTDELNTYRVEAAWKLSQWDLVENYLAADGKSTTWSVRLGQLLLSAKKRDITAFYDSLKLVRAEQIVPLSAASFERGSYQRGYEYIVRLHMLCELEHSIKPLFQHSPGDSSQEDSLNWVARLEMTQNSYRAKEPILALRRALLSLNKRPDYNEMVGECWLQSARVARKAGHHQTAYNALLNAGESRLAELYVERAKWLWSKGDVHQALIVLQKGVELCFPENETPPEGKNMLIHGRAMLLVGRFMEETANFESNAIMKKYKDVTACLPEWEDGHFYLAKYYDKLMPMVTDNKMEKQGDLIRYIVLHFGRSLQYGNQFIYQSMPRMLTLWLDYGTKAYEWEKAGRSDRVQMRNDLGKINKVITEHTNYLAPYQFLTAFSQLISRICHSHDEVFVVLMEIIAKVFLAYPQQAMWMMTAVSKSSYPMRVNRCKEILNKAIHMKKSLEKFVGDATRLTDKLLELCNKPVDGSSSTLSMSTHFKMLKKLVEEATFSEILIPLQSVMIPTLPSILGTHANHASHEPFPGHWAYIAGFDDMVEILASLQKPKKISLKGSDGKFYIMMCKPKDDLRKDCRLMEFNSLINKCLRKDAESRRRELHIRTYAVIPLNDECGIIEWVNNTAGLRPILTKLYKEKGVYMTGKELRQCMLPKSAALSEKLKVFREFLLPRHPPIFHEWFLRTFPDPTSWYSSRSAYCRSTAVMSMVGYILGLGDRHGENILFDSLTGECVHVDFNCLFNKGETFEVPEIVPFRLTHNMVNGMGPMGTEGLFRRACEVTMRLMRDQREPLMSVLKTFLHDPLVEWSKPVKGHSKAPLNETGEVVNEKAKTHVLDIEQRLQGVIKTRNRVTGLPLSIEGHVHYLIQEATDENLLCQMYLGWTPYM

| Structure (SMILES) | Ki |
| --- | --- |
| Nc1ncc(-c2ccc(S(=O)(=O)C3CCNCC3)cc2)nc1-c1nnc(-c2ccccc2)o1 [IA-197, 3-(5-phenyl-1,3,4-oxadiazol-2-yl)-5-[4-(4-piperidylsulfonyl)phenyl]pyrazin-2-amine] | ≤ 10 nM |
| CN(C)C(=O)c1ccc(-c2cnc(N)c(-c3nnc(-c4cccc(CCO)c4)o3)n2)cc1 [IA-69, 4-[5-amino-6-[5-[3-(2-hydroxyethyl)phenyl]-1,3,4-oxadiazol-2-yl]pyrazin-2-yl]-N,N-dimethyl-benzamide] | 10 to 100 nM |
| N#Cc1cc(C(=O)N2CCCNCC2)ccc1-c1cnc(N)c(-c2nnc(-c3ccccc3)o2)n1 [IA-20] | ≤ 10 nM |
| Nc1ncc(-c2ccc(C(=O)NC3CCOCC3)cc2)nc1C(=O)Nc1ccccc1 [Compound I-47, 3-amino-N-phenyl-6-(4-(tetrahydro-2H-pyran-4-ylcarbamoyl)phenyl)pyrazine-2-carboxamide] | 10 to 100 nM |
| Nc1ncc(-c2ccc(C(=O)N3CCCNCC3)cc2)nc1C(=O)Nc1nc2ccccc2[nH]1 [Compound V-10] | ≤ 10 nM |
| Nc1ncc(-c2ccncc2)nc1C(=O)Nc1ccccc1 [Compound I-33, 3-amino-N-phenyl-6-(pyridin-4-yl)pyrazine-2-carboxamide] | 100 to 5000 nM |
| CCSc1ccccc1-c1cnc(N)c(-c2nnc(-c3ccccc3)o2)n1 [IA-184, 5-(2-ethylsulfanylphenyl)-3-(5-phenyl-1,3,4-oxadiazol-2-yl)pyrazin-2-amine] | 10 to 100 nM |
| CCn1cc(-c2cnc(N)c(-c3nnc(-c4ccccc4)o3)n2)cn1 [IA-210, 5-(1-ethylpyrazol-4-yl)-3-(5-phenyl-1,3,4-oxadiazol-2-yl)pyrazin-2-amine] | 10 to 100 nM |
| Cc1ccc2nc(-c3nc(-c4ccc(C(=O)N5CCCN(C(=O)OC(C)(C)C)CC5)cc4)cnc3N)[nH]c2c1 [Compound I-147, tert-butyl 4-(4-(5-amino-6-(6-methyl-1H-benzo[d]imidazol-2-yl)pyrazin-2-yl)phenylcarbonyl)-1,4-diazepane-1-carboxylate] | ≤ 10 nM |
| Nc1ncc(-c2cccnc2)nc1C(=O)Nc1cccc2cc[nH]c12 [Compound V-15] | 100 to 5000 nM |
| CNCc1ccc(-c2nnc(-c3nc(-c4ccc(S(=O)(=O)C(C)C)c(C)c4)cnc3N)o2)cc1 [IA-312, 5-(4-isopropylsulfonyl-3-methyl-phenyl)-3-[5-[4-(methylaminomethyl)phenyl]-1,3,4-oxadiazol-2-yl]pyrazin-2-amine] | ≤ 10 nM |
| CNCc1ccc(-c2nnc(-c3nc(-c4ccc(S(=O)(=O)C(C)C)cc4C#N)cnc3N)o2)cc1 [IA-331, 2-[5-amino-6-[5-[4-(methylaminomethyl)phenyl]-1,3,4-oxadiazol-2-yl]pyrazin-2-yl]-5-isopropylsulfonyl-benzonitrile] | ≤ 10 nM |
| COc1ccc(NC(=O)c2nc(-c3cccnc3)cnc2N)cc1 [Compound I-84, 3-amino-N-(4-methoxyphenyl)-6-(pyridin-3-yl)pyrazine-2-carboxamide] | 100 to 5000 nM |
| Nc1ncc(-c2ccc(F)cc2)nc1C(=O)Nc1ccccc1 [Compound I-4, 3-amino-6-(4-fluorophenyl)-N-phenylpyrazine-2-carboxamide] | 100 to 5000 nM |
| CC(=O)c1ccc(-c2cnc(N)c(C(=O)Nc3ccccc3)n2)cc1 [Compound I-17, 6-(4-acetylphenyl)-3-amino-N-phenylpyrazine-2-carboxamide] | 100 to 5000 nM |
| Nc1ncc(-c2ccc(S(=O)(=O)N3CCNCC3)cc2)nc1-c1nnc(-c2ccccc2)o1 [IA-24] | 10 to 100 nM |
| CNCc1ccc(-c2nnc(-c3nc(-c4ccc(S(=O)(=O)C(C)C)cn4)cnc3N)o2)cc1 [IA-300, 5-(5-isopropylsulfonyl-2-pyridyl)-3-[5-[4-(methylaminomethyl)phenyl]-1,3,4-oxadiazol-2-yl]pyrazin-2-amine] | ≤ 10 nM |
| CN(C)C(=O)c1ccc(-c2cnc(N)c(-c3nnc(-c4ccc(CN)cc4)o3)n2)cc1 [IA-234, 4-[5-amino-6-[5-[4-(aminomethyl)phenyl]-1,3,4-oxadiazol-2-yl]pyrazin-2-yl]-N,N-dimethyl-benzamide] | ≤ 10 nM |
| NC(=O)c1cccc(NC(=O)c2nc(-c3cccnc3)cnc2N)c1 [Compound I-88, 3-amino-N-(3-carbamoylphenyl)-6-(pyridin-3-yl)pyrazine-2-carboxamide] | 100 to 5000 nM |
| Nc1ncc(-c2ccc(C(=O)N3CCC3)cc2)nc1C(=O)Nc1ccccc1 [Compound I-72, 3-amino-6-(4-(azetidine-1-carbonyl)phenyl)-N-phenylpyrazine-2-carboxamide] | 10 to 100 nM |
| COc1cnccc1-c1cnc(N)c(-c2nnc(-c3ccccc3)o2)n1 [IA-86, 5-(3-methoxy-4-pyridyl)-3-(5-phenyl-1,3,4-oxadiazol-2-yl)pyrazin-2-amine] | 100 to 5000 nM |
| CN(C)C(=O)c1ccc(-c2cnc(N)c(-c3nnc(-c4ccc(CNC(=O)OC(C)(C)C)cc4)o3)n2)cc1 [IA-162, tert-butyl N-[[4-[5-[3-amino-6-[4-(dimethylcarbamoyl)phenyl]pyrazin-2-yl]-1,3,4-oxadiazol-2-yl]phenyl]methyl]carbamate] | 10 to 100 nM |

| Structure (SMILES) | Ki |
| --- | --- |
| CCNCc1ccc(-c2cc(-c3nc(-c4ccc(S(=O)(=O)C(C)C)cc4)cnc3N)on2)cc1 [IIA-10, 3-[3-[4-(ethylaminomethyl)phenyl]isoxazol-5-yl]-5-(4-isopropylsulfonylphenyl)pyrazin-2-amine] | ≤ 10 nM |
| CNCc1ccc(-c2nnc(-c3nc(-c4ccc(S(=O)(=O)C(C)C)cc4F)cnc3N)o2)cc1 [IA-292, 5-(2-fluoro-4-isopropylsulfonyl-phenyl)-3-[5-[4-(methylaminomethyl)phenyl]-1,3,4-oxadiazol-2-yl]pyrazin-2-amine] | ≤ 10 nM |
| NC(=O)C1CCN(C(=O)c2ccc(-c3cnc(N)c(C(=O)Nc4ccccc4)n3)cc2)CC1 [Compound I-77, 3-amino-6-(4-(4-carbamoylpiperidine-1-carbonyl)phenyl)-N-phenylpyrazine-2-carboxamide] | 10 to 100 nM |
| NCc1ccc(-c2nnc(-c3nc(-c4cccnc4)cnc3N)[nH]2)cc1 [Compound I-139, 3-(5-(4-(aminomethyl)phenyl)-4H-1,2,4-triazol-3-yl)-5-(pyridin-3-yl)pyrazin-2-amine] | 10 to 100 nM |
| CNCc1ccc(-c2nnc(-c3nc(-c4ccc(S(=O)(=O)C(C)C)cc4)cnc3N)o2)c(F)c1 [IA-130, 3-[5-[2-fluoro-4-(methylaminomethyl)phenyl]-1,3,4-oxadiazol-2-yl]-5-(4-isopropylsulfonylphenyl)pyrazin-2-amine] | ≤ 10 nM |
| N#Cc1ncccc1-c1cnc(N)c(-c2nnc(-c3ccccc3)o2)n1 [IA-74, 3-[5-amino-6-(5-phenyl-1,3,4-oxadiazol-2-yl)pyrazin-2-yl]pyridine-2-carbonitrile] | ≤ 10 nM |
| Nc1ncc(-c2cccnc2)nc1C(=O)Nc1ccc2cc[nH]c2c1 [Compound V-16] | 10 to 100 nM |
| Nc1ncc(-c2cccc(C(=O)NCCN3CCCC3)c2)nc1C(=O)Nc1ccccc1 [Compound I-54, 3-amino-N-phenyl-6-(3-(2-(pyrrolidin-1-yl)ethylcarbamoyl)phenyl)pyrazine-2-carboxamide] | 100 to 5000 nM |
| Nc1ncc(-c2ccc(C(=O)N3CCCNCC3)cc2C(F)(F)F)nc1-c1nnc(-c2ccccc2)o1 [IA-39] | ≤ 10 nM |
| CC(C)S(=O)(=O)c1ccc(-c2cnc(N)c(-c3nnc(NC4CCNCC4)o3)n2)cc1 [IA-318, 5-[3-amino-6-(4-isopropylsulfonylphenyl)pyrazin-2-yl]-N-(4-piperidyl)-1,3,4-oxadiazol-2-amine] | 100 to 5000 nM |
| CS(=O)(=O)c1ccc(-c2cnc(N)c(-c3nc4ccc(C(F)(F)F)cc4[nH]3)n2)cc1 [Compound I-118, 5-(4-(methylsulfonyl)phenyl)-3-(6-(trifluoromethyl)-1H-benzo[d]imidazol-2-yl)pyrazin-2-amine] | ≤ 10 nM |
| COC1CN(C(=O)c2ccc(-c3cnc(N)c(C(=O)Nc4ccccc4)n3)cc2)C1 [Compound I-44, 3-amino-6-(4-(3-methoxyazetidine-1-carbonyl)phenyl)-N-phenylpyrazine-2-carboxamide] | 10 to 100 nM |
| CN(C)C(=O)c1ccc(-c2cnc(N)c(-c3nnc(-c4ccccc4)o3)n2)cc1 [IA-23, 4-(5-amino-6-(5-phenyl-1,3,4-oxadiazol-2-yl)pyrazin-2-yl)-N,N-dimethylbenzamide] | ≤ 10 nM |
| NC(=O)c1ccc(-c2cnc(N)c(-c3nnc(-c4ccccc4)o3)n2)cc1 [IA-218, 4-[5-amino-6-(5-phenyl-1,3,4-oxadiazol-2-yl)pyrazin-2-yl]benzamide] | 10 to 100 nM |
| CC(C)S(=O)(=O)c1ccc(-c2cnc(N)c(-c3nnc(-c4ccc(CNC5CC5)cc4)o3)n2)cc1 [IA-158, 3-[5-[4-[(cyclopropylamino)methyl]phenyl]-1,3,4-oxadiazol-2-yl]-5-(4-isopropylsulfonylphenyl)pyrazin-2-amine] | ≤ 10 nM |
| Nc1ncc(-c2ccc(N3CCOCC3)nc2)nc1-c1nnc(-c2ccccc2)o1 [IA-283, 5-(6-morpholino-3-pyridyl)-3-(5-phenyl-1,3,4-oxadiazol-2-yl)pyrazin-2-amine] | 10 to 100 nM |
| Nc1ncc(-c2cccc3cccnc23)nc1-c1nnc(-c2ccccc2)o1 [IA-216, 3-(5-phenyl-1,3,4-oxadiazol-2-yl)-5-(8-quinolyl)pyrazin-2-amine] | 100 to 5000 nM |
| CNCc1ccc(-c2nnc(-c3nc(-c4ccc(S(=O)(=O)C(C)C)cc4)cnc3N)o2)cc1F [IA-336, 3-[5-[3-fluoro-4-(methylaminomethyl)phenyl]-1,3,4-oxadiazol-2-yl]-5-(4-isopropylsulfonylphenyl)pyrazin-2-amine] | ≤ 10 nM |
| CC(C)S(=O)(=O)c1ccccc1-c1cnc(N)c(-c2nnc(-c3ccccc3)o2)n1 [IA-121, 5-(2-isopropylsulfonylphenyl)-3-(5-phenyl-1,3,4-oxadiazol-2-yl)pyrazin-2-amine] | 100 to 5000 nM |
| Nc1ncc(-c2cccc(C(=O)N3CCOCC3)c2)nc1C(=O)Nc1ccccc1 [Compound I-20, 3-amino-6-(3-(morpholine-4-carbonyl)phenyl)-N-phenylpyrazine-2-carboxamide] | 10 to 100 nM |
| COCCN(C)C(=O)c1ccc(-c2cnc(N)c(-c3nnc(-c4ccccc4)o3)n2)cc1 [IA-14] | ≤ 10 nM |

From patent US10479784B2, “Substituted pyrazin-2-amines as inhibitors of ATR kinase” (Vertex Pharmaceuticals Incorporated, priority 2008, dated 2019)
